Results from EP1803452A1, “ESTER DERIVATIVE AND PHARMACEUTICAL USE THEREOF” (Japan Tobacco, Inc., priority 2004, dated 2006).

What was measured:
[1] = Metabolic stability test in plasma; type: in vitro ADME, human; settings: LC/MS; for remaining at 10 min: unchanged form after 10 minutes at 37°C in human plasma, read-out: Remaining rate in human plasma (%/10min); for remaining at 1 h: unchanged form after 60 minutes at 37°C in human plasma, read-out: Remaining rate in human plasma (%/60min)
How it was run: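 Remaining rate (%) versus zero time was derived from LC/MS measurement of parent compound after centrifugation. Plasma from human, mouse and hamster received DMSO-dissolved compound and was held at 37°C for 0, 10 or 60 minutes before acetonitrile containing formic acid (final 0.1%) stopped the reaction.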

[2] = Stability test in buffer (pH 7.4); type: physicochemical; settings: phosphate buffer/acetonitrile 7:3, 100 mM potassium phosphate buffer (pH 7.4) and acetonitrile 7:3 (v/v), LC/MS; for remaining at 10 min: 10 minutes at 37°C, read-out: Buf. remaining rate (%/10min); for remaining at 1 h: 60 minutes at 37°C, read-out: Buf. remaining rate (%/60min)
How it was run: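 Parent compound measured by LC/MS after 0, 10 or 60 min at 37°C in a 7:3 (v/v) mix of 100 mM potassium phosphate buffer and acetonitrile, with the reaction stopped by acetonitrile plus formic acid (final 0.1%). Percentage remaining is expressed relative to the zero-time amount.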

[3] = Metabolic stability test in liver S9; type: in vitro ADME; settings: pH 7.4, human liver S9 2 mg protein/mL, LC/MS; for remaining at 10 min: unchanged form after 10 minutes at 37°C, read-out: Remaining rate in human liver S9 (%/10min); for remaining at 1 h: unchanged form after 60 minutes at 37°C, read-out: Remaining rate in human liver S9 (%/60min)
How it was run: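 Compound from DMSO solution was incubated at 37°C with human liver S9 (final 2 mg protein/mL) in 100 mM potassium phosphate pH 7.4 with an NADPH-regenerating system for 0, 10 and 60 minutes. Reactions were stopped with acetonitrile/0.1% formic acid. Unchanged compound was measured by LC/MS as remaining rate (%) relative to zero time.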

Row | SMILES | remaining at 10 min [1] | remaining at 1 h [1] | remaining at 10 min [2] | remaining at 1 h [2] | remaining at 10 min [3] | remaining at 1 h [3]
1 | COc1ccc(COC(=O)c2ccc(OC(=O)CCCc3ccc(NC(=O)c4ccccc4-c4ccc(C(F)(F)F)cc4)c(C(=O)N(C)C)c3)cc2)cc1 [Compound 1-96, 4-[4-(3-dimethylcarbamoyl-4-{(4'-trifluoromethylbiphenyl-2-carbonyl)amino}phenyl)butyryloxy]benzoic acid 4-methoxybenzyl ester] | 0% | 0% | 100% | 109% | 15% | 7%
2 | COc1cccc(COC(=O)c2ccc(OC(=O)CCCc3ccc(NC(=O)c4ccccc4-c4ccc(C(F)(F)F)cc4)c(C(=O)N(C)C)c3)cc2)c1 [Compound 1-97, 4-[4-(3-dimethylcarbamoyl-4-{(4'-trifluoromethylbiphenyl-2-carbonyl)amino}phenyl)butyryloxy]benzoic acid 3-methoxybenzyl ester] | 49% | 0% | 100% | 104% | 13% | 7%
3 | CN(C)C(=O)c1cc(CCCC(=O)Oc2ccc(C(=O)OCc3cccs3)cc2)ccc1NC(=O)c1ccccc1-c1ccc(C(F)(F)F)cc1 [Compound 1-98, 4-[4-(3-dimethylcarbamoyl-4-{(4'-trifluoromethylbiphenyl-2-carbonyl)amino}phenyl)butyryloxy]benzoic acid thiophen-2-ylmethyl ester] | 5% | 0% | 101% | 99% | 6% | 0%
4 | Cc1cccc(COC(=O)c2ccc(OC(=O)CCCc3ccc(NC(=O)c4ccccc4-c4ccc(C(F)(F)F)cc4)c(C(=O)N(C)C)c3)cc2)n1 [Compound 1-101, 4-[4-(3-dimethylcarbamoyl-4-{(4'-trifluoromethylbiphenyl-2-carbonyl)amino}phenyl)butyryloxy]benzoic acid 6-methylpyridin-2-ylmethyl ester] | 42% | 0% | 100% | 103% | 3% | 0%
5 | CC(C)OC(=O)COC(=O)c1ccc(OC(=O)CCCc2ccc(NC(=O)c3ccccc3-c3ccc(C(F)(F)F)cc3)c(C(=O)N(C)C)c2)cc1 [Compound 1-102, 4-[4-(3-dimethylcarbamoyl-4-{(4'-trifluoromethylbiphenyl-2-carbonyl)amino}phenyl)butyryloxy]benzoic acid isopropoxycarbonylmethyl ester] | 46% | 0% | 98% | 101% | 0% | 0%
6 | CN(C)C(=O)c1cc(CCCC(=O)Oc2ccc(C(=O)OCc3ccc(C(=O)OC(C)(C)C)cc3)cc2)ccc1NC(=O)c1ccccc1-c1ccc(C(F)(F)F)cc1 [Compound 1-103, 4-[4-(3-dimethylcarbamoyl-4-{(4'-trifluoromethylbiphenyl-2-carbonyl)amino}phenyl)butyryloxy]benzoic acid 4-(t-butoxycarbonyl)benzyl ester] | 99% | 55% | 105% | 111% | 48% | 12%
7 | CN(C)C(=O)c1cc(CCCC(=O)Oc2ccc(C(=O)OC3CCc4ccccc43)cc2)ccc1NC(=O)c1ccccc1-c1ccc(C(F)(F)F)cc1 (stereo not drawn) [Compound 1-107, 4-[4-(3-dimethylcarbamoyl-4-{(4'-trifluoromethylbiphenyl-2-carbonyl)amino}phenyl)butyryloxy]benzoic acid indan-1-yl ester] | 63% | 2% | 98% | 99% | 11% | 3%
8 | CN(C)C(=O)c1cc(CCCC(=O)Oc2ccc(C(=O)OC3CCCc4ccccc43)cc2)ccc1NC(=O)c1ccccc1-c1ccc(C(F)(F)F)cc1 (stereo not drawn) [Compound 1-108, 4-[4-(3-dimethylcarbamoyl-4-{(4'-trifluoromethylbiphenyl-2-carbonyl)amino}phenyl)butyryloxy]benzoic acid 1,2,3,4-tetrahydronaphthalen-1-yl ester] | 89% | 17% | 98% | 98% | 25% | 5%
9 | CC(=O)N1CCC(OC(=O)c2ccc(OC(=O)CCCc3ccc(NC(=O)c4ccccc4-c4ccc(C(F)(F)F)cc4)c(C(=O)N(C)C)c3)cc2)CC1 [Compound 1-109, 4-[4-(3-dimethylcarbamoyl-4-{(4'-trifluoromethylbiphenyl-2-carbonyl)amino}phenyl)butyryloxy]benzoic acid 1-acetylpiperidin-4-yl ester] | 50% | 3% | 99% | 99% | 0% | 0%

Further lines, results first:

Row | remaining at 10 min [1] | remaining at 1 h [1] | remaining at 10 min [2] | remaining at 1 h [2] | remaining at 10 min [3] | remaining at 1 h [3] | SMILES
10 | 41% | 9% | 99% | 102% | 0% | 0% | Cc1ccc(C(=O)Nc2ccc(CCCC(=O)Oc3ccc(C(=O)OCc4cccnc4)cc3)cc2C(=O)N(C)C)c(-c2ccc(C(F)(F)F)cc2)n1 [Compound 1-94, 4-[4-(3-dimethylcarbamoyl-4-{[6-methyl-2-(4-trifluoromethylphenyl)pyridine-3-carbonyl]amino}phenyl)butyryloxy]benzoic acid pyridin-3-ylmethyl ester]
11 | 82% | 29% | 103% | 102% | 0% | 0% | CN(C)C(=O)c1cc(CCCC(=O)Oc2ccc(-c3nnn(C)n3)cc2)ccc1NC(=O)c1ccccc1-c1ccc(C(F)(F)F)cc1 [Compound 1-95, 4-(3-dimethylcarbamoyl-4-{(4'-trifluoromethylbiphenyl-2-carbonyl)amino}phenyl)butyric acid 4-(2-methyl-2H-tetrazol-5-yl)phenyl ester]
12 | 5% | 0% | 98% | 99% | 6% | 0% | CN(C)C(=O)c1cc(CCCC(=O)Oc2ccc(C(=O)OCc3ccsc3)cc2)ccc1NC(=O)c1ccccc1-c1ccc(C(F)(F)F)cc1 [Compound 1-99, 4-[4-(3-dimethylcarbamoyl-4-{(4'-trifluoromethylbiphenyl-2-carbonyl)amino}phenyl)butyryloxy]benzoic acid thiophen-3-ylmethyl ester]
13 | 12% | 0% | 102% | 102% | 0% | 0% | Cc1cccc(COC(=O)c2ccc(OC(=O)CCCc3ccc(NC(=O)c4ccc(C)nc4-c4ccc(C(F)(F)F)cc4)c(C(=O)N(C)C)c3)cc2)n1 [Compound 1-100, 4-[4-(3-dimethylcarbamoyl-4-([6-methyl-2-(4-trifluoromethylphenyl)pyridine-3-carbonyl]amino}phenyl)butyryloxy]benzoic acid 6-methylpyridin-2-ylmethyl ester]
14 | 78% | 17% | 101% | 96% | 14% | 5% | CN(C)C(=O)c1cc(CCCC(=O)Oc2ccc(-c3nnn(CC(=O)OCc4ccccc4)n3)cc2)ccc1NC(=O)c1ccccc1-c1ccc(C(F)(F)F)cc1 [Compound 1-104, 4-(3-dimethylcarbamoyl-4-{(4'-trifluoromethylbiphenyl-2-carbonyl)amino}phenyl)butyric acid 4-(2-benzyloxycarbonylmethyl-2H-tetrazol-5-yl)phenyl ester]
15 | 84% | 43% | 101% | 101% | 3% | 0% | CN(C)C(=O)Cn1nnc(-c2ccc(OC(=O)CCCc3ccc(NC(=O)c4ccccc4-c4ccc(C(F)(F)F)cc4)c(C(=O)N(C)C)c3)cc2)n1 [Compound 1-105, 4-(3-dimethylcarbamoyl-4-{(4'-trifluoromethylbiphenyl-2-carbonyl)amino}phenyl)butyric acid 4-(2-dimethylcarbamoylmethyl-2H-tetrazol-5-yl)phenyl ester]
16 | 49% | 0% | 98% | 99% | 13% | 0% | CC(OC(=O)c1ccc(OC(=O)CCCc2ccc(NC(=O)c3ccccc3-c3ccc(C(F)(F)F)cc3)c(C(=O)N(C)C)c2)cc1)c1ccccc1 (stereo not drawn) [Compound 1-106, 4-[4-(3-dimethylcarbamoyl-4-{(4'-trifluoromethylbiphenyl-2-carbonyl)amino}phenyl)butyryloxy]benzoic acid 1-phenylethyl ester]
